Where two headings read alike, the source gives them in different places.
Key:
Myzus persicae = test: Myzus test (spray treatment); type: in vivo; conditions: Aufwandmenge 500 g/ha, Chinakohlblattscheiben (Brassica pekinensis) sprayed, 100 % = all aphids killed, read-out: Wirkung
From the text: Myzus-Test (Spritzbehandlung)
Zur Herstellung einer zweckmäßigen Wirkstoffzubereitung vermischt man 1 Gewichtsteil Wirkstoff mit den angegebenen Mengen Lösungsmittel und Emulgator und verdünnt das Konzentrat mit emulgatorhaltigem Wasser auf die gewünschte Konzentration.
Chinakohlblattscheiben (Brassica pekinensis), die von allen Stadien der Grünen Pfirsichblattlaus (Myzus persicae) befallen sind, werden mit einer Wirkstoffzubereitung der gewünschten Konzentration gespritzt.
Nach der gewünschten Zeit wird die Wirkung in % bestimmt. Dabei bedeutet 100 %, dass alle Blattläuse abgetötet wurden; 0 % bedeutet, dass keine Blattläuse abgetötet wurden.

[1] = logP determination (acidic, HCOOH); type: physicochemical
Boophilus microplus = Boophilus microplus test (BOOPMI injection); type: in vivo; conditions: Aufwandmenge 20 µg/Tier; injected into the abdomen; 100 % = no tick laid fertile eggs
From the text: Boophilus microplus -Test (BOOPMI Injektion)
Lösungsmittel: Dimethylsulfoxid
Zur Herstellung einer zweckmäßigen Wirkstoffzubereitung vermischt man 1 Gewichtsteil Wirkstoff mit der angegebenen Menge Lösungsmittel und verdünnt das Konzentrat mit Lösungsmittel auf die gewünschte Konzentration.
Die Wirkstofflösung wird in das Abdomen (Boophilus microplus) injiziert, die Tiere werden in Schalen überführt und in einem klimatisierten Raum aufbewahrt.
Nach der gewünschten Zeit wird die Wirkung in % bestimmt. Dabei bedeutet 100%, dass keine Zecke fertile Eier gelegt hat.

[2] = acidic (HCOOH), read-out: Phys. Daten = logP (HCOOH)
[3] = hcooh, read-out: Phys. Daten = logP (HCOOH)

Row | Compound | logP [1, 2] | logP ([1]; sauer, read-out: logP (sauer)) | logP [1, 3] | mortality at 500 g/ha (Myzus persicae) [%] | Wirkung (Boophilus microplus) [%]
1 | CC(C)c1cs/c(=N\C2CCCc3occc32)n1CCO (stereo not shown) [I-2] | 1.23 | 1.23 |  | ≥ 80 | 
2 | CC(C)c1cs/c(=N\C2CCc3ccsc32)n1CCO (stereo not shown) [I-1, 2-[(2Z)-2-(5,6-dihydro-4H-cyclopenta[b]thiophen-6-ylimino)-4-(1-methylethyl)-1,3-thiazol-3(2H)-yl]ethanol] | 1.19 | 1.19 |  | ≥ 80 | ≥ 80
3 | C[C@H](NC(=S)NCCO)c1cccs1 [II-74] |  |  | 1.3 |  | 

More lines, main results first:

Row | logP [1, 2] | logP ([1]; sauer, read-out: logP (sauer)) | logP [1, 3] | Compound | mortality at 500 g/ha (Myzus persicae) [%] | Wirkung (Boophilus microplus) [%]
4 |  |  | 1.7 | OCCNC(=S)NC1CCCc2sccc21 (stereo not shown) [II-3] | ≥ 80 | 
5 |  | 1.47 | 1.47 | OCCNC(=S)NC1CCc2ccsc21 (stereo not shown) [II-1, (5,6-dihydro-4H-cyclopenta[b]thiophen-6-yl)-3-(2-hydroxyethyl)thiourea] | ≥ 80 | 
6 |  | 1.4 | 1.4 | OCCNC(=S)NC1CCCc2occc21 (stereo not shown) [II-2, 1-(2-hydroxyethyl)-3-(4,5,6,7-tetrahydro-1-benzofuran-4-yl)thiourea] | ≥ 80 | 

From patent publication EP2060571A1, “Insecticide iminoheterocycles” (Bayer CropScience AG, priority 2007, dated 2009)
